Measured values taken from patent EP4356909A1, “1-(SULFONYL)-N-PHENYLPYRROLIDINE-2-CARBOXAMIDES DERIVATIVES AND USE THEREOF” (Selabtec Sciences, SLU, priority 2022, dated 2024).

Assays:
[1] = tested on: NFATc activation in HEK 293T cells; experiment: NFATc activation, 3xNFAT-luc dual-luciferase reporter assay; type: cell-based, human; settings: HEK 293T cells stimulated with ionomycin, PMA and CaCl2; compounds for 2 hours; at least at 100, 50 and 20 µM (Figure 1)
Method: To determine the effect of compounds of formula (I) on NFATc activation, HEK 293T cells were transfected with 3xNFAT-luc reporter gene and Renilla-luc plasmid as control of gene transfection. After 24 hours, to activate the cellular CN -NFATc signaling pathway, cells were stimulated with ionomycin (lo), PMA and CaCl2 for 4 h to raise intracellular concentration of calcium. As positive control of inhibition of CN activity, cells were treated with 1 µM of CsA 30 min prior to Io/PMA/CaCl2 stimulation. Then, cells were treated with compounds of formula (I) at several concentrations for 2 hours and light units analyzed following manufacture's protocol of the dual-luciferase reporter assay system (Figure 1, Functional effect of pair related structure compounds on NFATc activation).

RD = experiment: Proliferation assay, Methyl violet staining; type: cell-based; settings: inhibition values; rhabdomyosarcoma cell line; 5 days of incubation; mean of 6 wells
Method: (§1) Compound INK-150.46 (or SLB-605) was assayed against several cancer cell lines in proliferation assays.
(§2) The measurements were taken using an in vitro test to measure cell growth based on Methyl violet staining after 5 days of incubation with the aforementioned drug or control vehicle (DMSO). The procedure was carried out in a 96-well plate. After 1 wash with phosphate-buffered saline (PBS), cells were stained for 20 minutes at room temperature with Methyl violet (0.5 % w/v in water). After 5 washes with PBS, and the addition of acetic acid (10% in water), plates were read in a spectrophotometer at 590 nm. All conditions were tested in 6 independent wells and results expressed as a mean of all replicates.

RH4 = experiment: Proliferation assay, Methyl violet staining; type: cell-based; settings: inhibition values; rhabdomyosarcoma cell line; 5 days of incubation; mean of 6 wells
Method: as §1, §2

SHSY5Y = experiment: Proliferation assay, Methyl violet staining; type: cell-based; settings: inhibition values; neuroblastoma cell line; 5 days of incubation; mean of 6 wells
Method: as §1, §2

SKNBE2 = experiment: Proliferation assay, Methyl violet staining; type: cell-based; settings: inhibition values; neuroblastoma cell line; 5 days of incubation; mean of 6 wells
Method: as §1, §2

U2OS = experiment: Proliferation assay, Methyl violet staining; type: cell-based; settings: osteosarcoma (OS) cell line; 5 days of incubation (Figure 7)
Method: as §1, §2

Compound: Cc1c(Cl)cc(F)cc1S(=O)(=O)N1CCC[C@H]1C(=O)N(Cn1nnc2ccccc21)c1ccccc1 [INK-150.46, (S)-N-((1H-Benzo[d][1,2,3]triazol-1-yl)methyl)-1-((3-chloro-5-fluoro-2-methylphenyl)sulfonyl)-N-phenylpyrrolidine-2-carboxamide]
- NFATc activation [1]: strongly inhibits NFATc activation
- Effect over RD (%) (RD): 75%
- Effect over RH4 (%) (RH4): 78.1%
- Effect over SHSY5Y (%) (SHSY5Y): 48.8%
- Effect over SKNBE2 (%) (SKNBE2): 59.5%
- inhibitory effect over U2OS (proliferation) (U2OS): inhibitory effect
